# Assay results reported in patent US20120245184A1 (Aderans Research Institute, Inc., priority 2006, published 2012).
# Counter-ions that a name gives are not always drawn.
# Legend:
# sonic hedgehog pathway [1] = test: Hedgehog reporter assay (gli-luciferase) in S12 cells; type: cell-based; settings: S12 mouse embryonic mesenchymal cells
# Text: (§1) Mouse (TM3: mouse Leydig cells; S12: mouse embryonic mesenchymal cells) and human (Daoy: human medulloblastoma cell; HepM: human embryonic palatal mesenchymal cell) cell lines are used to screen small molecules for their ability to modulate the activity of the sonic hedgehog pathway (Table 1, Table 2, and Table 3). Stable hedgehog pathway reporter cell lines are established by specific antibiotic selection following transfection of a reporter plasmid containing a luciferase gene located directly downstream from the gli promoter. Consequently, any observable changes in cellular luciferase activity may be attributed to changes in sonic hedgehog pathway activity in mouse and human cells, respectively, since gli is the major by-product of this pathway. To calculate activity, we generate an eleven point dose curve for each compound using 1:3 dilutions in 96 well assay plates. Each plate tested also contains low and high control to establish maximal pathway activation so to establish/compare a percentage activation of each tested compound (AMAX) on respective plates. Also we calculate EC50 values, or a concentration where the pathway will be exactly 50% activated, for each tested compound to determine potency. In these cell lines, compounds that register >20% AMAX values are considered active.
# (§2) Stable hedgehog pathway reporter cell lines are established following specific antibiotic selection following transfection of a reporter plasmid
# (§3) In short, typically cells are plated in MicroTiter-plates at 10,000-20,000 cells per well, in growth media (containing 10%-20% FBS). After 48-72 hrs (HGL and DGL respectively) the media in the assay plates is switched to low-serum containing media (0.5% FBS). At that time compounds are added (at 1-5 μM) to the assay plates, in the presence or absence of hedgehog protein (octyl-modified version; 1-5 ng/ml). After another 24 hrs of incubation, the media from the assay plates is discarded and replaced with luciferase assay-mix. Subsequently, plates are incubated at RT for ˜15-30 mins and then read in a luminometer. [note: addition of the Hedgehog protein, although not critical, will sensitize the assay allowing the identification of weak actives].
# sonic hedgehog pathway [2] = test: Human hedgehog reporter assay Daoy-GliLuc (DGL); type: cell-based
# Text: as §1, with “plates.” for “plates. Also we calculate EC50 values, or a concentration where the pathway will be exactly 50% activated, for each tested compound to determine potency. In these cell lines, compounds that register >20% AMAX values are considered active.”
# as §2, §3
# [3] = Daoy human medulloblastoma cells, gli-luciferase reporter, read-out: Human Daoy (Gli-Luc) Avg. EC50
# [4] = Homo sapiens, Daoy, read-out: Human Daoy (Gli-Luc) Avg. EC50 (nM)
# [5] = Daoy human medulloblastoma cells, gli-luciferase reporter, read-out: Daoy Avg. EC50
smiles,measurement,setting,value
"CN[C@H]1CC[C@H](N(Cc2cc(-c3cccnc3F)ccc2OC)C(=O)c2sc3c(F)ccc(F)c3c2Cl)CC1 [Compound 378, 3-Chloro-4,7-difluoro-benzo[b]thiophene-2-carboxylic acid[5-(2-fluoro-pyridin-3-yl)-2-methoxy-benzyl]-(4-methylamino-cyclohexyl)-amide]",EC50,sonic hedgehog pathway [1]; read-out: Mouse S12 Avg. EC50,< 50 nM
same,EC50,sonic hedgehog pathway [2]; [3],< 50 nM
"CNC1CCC(N(Cc2cc(-c3ccnc(F)c3)ccc2OC)C(=O)c2sc3c(F)ccc(F)c3c2Cl)CC1 (centres unmarked) [Compound 384, 3-Chloro-4,7-difluoro-benzo[b]thiophene-2-carboxylic acid[5-(2-fluoro-pyridin-4-yl)-2-methoxy-benzyl]-(4-methylamino-cyclohexyl)-amide]",EC50,sonic hedgehog pathway [1]; read-out: Mouse S12 Avg. EC50,< 50 nM
same,EC50,sonic hedgehog pathway [2]; [3],< 50 nM
"CNC1CCC(N(Cc2cc(-c3ccc(NS(C)(=O)=O)cc3)ccc2OC)C(=O)c2sc3c(F)ccc(F)c3c2Cl)CC1 (centres unmarked) [Compound 370, 3-Chloro-4,7-difluoro-benzo[b]thiophene-2-carboxylic acid (4′-methanesulfonylamino-4-methoxy-biphenyl-3-ylmethyl)-(4-methylamino-cyclohexyl)-amide hydrochloride]",EC50,sonic hedgehog pathway [1]; read-out: Mouse S12 Avg. EC50,< 50 nM
same,EC50,sonic hedgehog pathway [2]; [4],< 50 nM
"CNC1CCC(N(Cc2cc(-c3ccncc3F)ccc2OC)C(=O)c2sc3cccc(F)c3c2Cl)CC1 (centres unmarked) [Compound 387, 3-Chloro-4-fluoro-benzo[b]thiophene-2-carboxylic acid[5-(3-fluoro-pyridin-4-yl)-2-methoxy-benzyl]-(4-methylamino-cyclohexyl)-amide]",EC50,sonic hedgehog pathway [1]; read-out: Mouse S12 Avg. EC50,< 50 nM
same,EC50,sonic hedgehog pathway [2]; [3],< 50 nM
"C=Cc1ccc(-c2ccc(OC)c(CN(C(=O)c3sc4c(F)ccc(F)c4c3Cl)[C@H]3CC[C@H](N)CC3)c2)cc1 [Compound 393, N-((1r,4r)-4-aminocyclohexyl)-3-chloro-4,7-difluoro-N-((4-methoxy-4′-vinylbiphenyl-3-yl)methyl)benzo[b]thiophene-2-carboxamide]",EC50,sonic hedgehog pathway [1]; read-out: Mouse S12 Avg. EC50,50 to 250 nM
same,EC50,sonic hedgehog pathway [2]; [3],50 to 250 nM
"CNC1CCC(N(Cc2cc(-c3ccncc3)ccc2C)C(=O)c2sc3c(F)ccc(F)c3c2Cl)CC1 (centres unmarked) [Compound 392, 3-Chloro-4,7-difluoro-benzo[b]thiophene-2-carboxylic acid (4-methylamino-cyclohexyl)-(2-methyl-5-pyridin-4-yl-benzyl)-amide bis(trifluoroacetate)]",EC50,sonic hedgehog pathway [1]; read-out: Mouse S12 Avg. EC50,< 50 nM
same,EC50,sonic hedgehog pathway [2]; [3],< 50 nM
"COc1ccc(-c2cccnc2)cc1CN(C(=O)c1sc2cccc(F)c2c1Cl)[C@H]1CC[C@H](N)CC1 [Compound 410, 3-Chloro-4-fluoro-benzo[b]thiophene-2-carboxylic acid(4-amino-cyclohexyl)-(2-methoxy-5-pyridin-3-yl-benzyl)-amide]",EC50,sonic hedgehog pathway [1]; read-out: S12 Avg. EC50,< 50 nM
same,EC50,sonic hedgehog pathway [2]; [5],< 50 nM
"CNC1CCC(N(Cc2cc(-c3ccccc3SC)ccc2OC)C(=O)c2sc3c(F)ccc(F)c3c2Cl)CC1 (centres unmarked) [Compound 408, 3-Chloro-4,7-difluoro-benzo[b]thiophene-2-carboxylic acid (4-methoxy-2′-methylsulfanyl-biphenyl-3-ylmethyl)-(4-methylamino-cyclohexyl)-amide hydrochloride]",EC50,sonic hedgehog pathway [1]; read-out: S12 Avg. EC50,250 to 1000 nM
same,EC50,sonic hedgehog pathway [2]; [5],250 to 1000 nM
CN[C@H]1CC[C@H](N(Cc2cc(-c3cccnc3F)ccc2OC)C(=O)c2sc3cccc(F)c3c2Cl)CC1 [Compound 381],EC50,sonic hedgehog pathway [1]; read-out: Mouse S12 Avg. EC50,< 50 nM
same,EC50,sonic hedgehog pathway [2]; [3],< 50 nM
"CCc1ccc(-c2ccncc2)cc1CN(C(=O)C1=C(Cl)c2c(F)ccc(F)c2C1)[C@H]1CC[C@@H](NC)CC1 [Compound 395, 3-Chloro-4,7-difluoro-benzo[b]thiophene-2-carboxylic acid(2-ethyl-5-pyridin-4-yl-benzyl)-(4-methylamino-cyclohexyl)-amide dihydrochloride]",EC50,sonic hedgehog pathway [1]; read-out: Mouse S12 Avg. EC50,50 to 250 nM
same,EC50,sonic hedgehog pathway [2]; [3],50 to 250 nM
"CNC1CCC(N(Cc2cc(-c3ccc(CS(C)(=O)=O)cc3)ccc2OC)C(=O)c2sc3c(F)ccc(F)c3c2Cl)CC1 (centres unmarked) [Compound 369, 3-Chloro-4,7-difluoro-benzo[b]thiophene-2-carboxylic acid(4′-methanesulfonylmethyl-4-methoxy-biphenyl-3-ylmethyl)-(4-methylamino-cyclohexyl)-amide hydrochloride]",EC50,sonic hedgehog pathway [1]; read-out: Mouse S12 Avg. EC50,< 50 nM
same,EC50,sonic hedgehog pathway [2]; [3],< 50 nM
"CN[C@H]1CC[C@H](N(Cc2cc(-c3ccc(F)nc3)ccc2OC)C(=O)c2sc3c(F)ccc(F)c3c2Cl)CC1 [Compound 379, 3-Chloro-4,7-difluoro-benzo[b]thiophene-2-carboxylic acid[5-(6-fluoro-pyridin-3-yl)-2-methoxy-benzyl]-(4-methylamino-cyclohexyl)-amide]",EC50,sonic hedgehog pathway [1]; read-out: Mouse S12 Avg. EC50,< 50 nM
same,EC50,sonic hedgehog pathway [2]; [3],< 50 nM
"COc1ccc(-c2ccc(S(C)(=O)=O)cc2)cc1CN(C(=O)c1sc2c(F)ccc(F)c2c1Cl)C1CCC(N)CC1 (centres unmarked) [Compound 390, 3-Chloro-4,7-difluoro-benzo[b]thiophene-2-carboxylic acid (4-amino-cyclohexyl)-(4′-methanesulfonyl-4-methoxy-biphenyl-3-ylmethyl)-amide hydrochloride]",EC50,sonic hedgehog pathway [1]; read-out: Mouse S12 Avg. EC50,< 50 nM
same,EC50,sonic hedgehog pathway [2]; [4],< 50 nM
"CN[C@H]1CC[C@H](N(Cc2cc(-c3ccc(F)nc3)ccc2OC)C(=O)c2sc3cccc(F)c3c2Cl)CC1 [Compound 382, 3-Chloro-4-fluoro-benzo[b]thiophene-2-carboxylic acid[5-(6-fluoro-pyridin-3-yl)-2-methoxy-benzyl]-(4-methylamino-cyclohexyl)-amide]",EC50,sonic hedgehog pathway [1]; read-out: Mouse S12 Avg. EC50,< 50 nM
same,EC50,sonic hedgehog pathway [2]; [3],< 50 nM
"CN[C@H]1CC[C@@H](N(Cc2cc(OC)cc(-c3ccncc3)c2)C(=O)C2=C(Cl)c3c(F)ccc(F)c3C2)CC1 [Compound 394, 3-Chloro-4,7-difluoro-benzo[b]thiophene-2-carboxylic acid(3-methoxy-5-pyridin-4-yl-benzyl)-(4-methylamino-cyclohexyl)-amide bis(trifluoroacetate)]",EC50,sonic hedgehog pathway [1]; read-out: Mouse S12 Avg. EC50,< 50 nM
same,EC50,sonic hedgehog pathway [2]; [3],< 50 nM
"CN[C@H]1CC[C@H](N(Cc2cc(-c3cncc(F)c3)ccc2OC)C(=O)c2sc3c(F)ccc(F)c3c2Cl)CC1 [Compound 380, 3-Chloro-4,7-difluoro-benzo[b]thiophene-2-carboxylic acid[5-(5-fluoro-pyridin-3-yl)-2-methoxy-benzyl]-(4-methylamino-cyclohexyl)-amide]",EC50,sonic hedgehog pathway [1]; read-out: Mouse S12 Avg. EC50,< 50 nM
same,EC50,sonic hedgehog pathway [2]; [3],< 50 nM
"CNC1CCC(N(Cc2cc(-c3ccnc(F)c3)ccc2OC)C(=O)c2sc3cccc(F)c3c2Cl)CC1 (centres unmarked) [Compound 385, 3-Chloro-4-fluoro-benzo[b]thiophene-2-carboxylic acid[5-(2-fluoro-pyridin-4-yl)-2-methoxy-benzyl]-(4-methylamino-cyclohexyl)-amide]",EC50,sonic hedgehog pathway [1]; read-out: Mouse S12 Avg. EC50,< 50 nM
same,EC50,sonic hedgehog pathway [2]; [3],< 50 nM
"CNC1CCC(N(Cc2cc(-c3ccc(S(N)(=O)=O)cc3)ccc2OC)C(=O)c2sc3c(F)ccc(F)c3c2Cl)CC1 (centres unmarked) [Compound 388, 3-Chloro-4,7-difluoro-benzo[b]thiophene-2-carboxylic acid(4-methoxy-4′-sulfamoyl-biphenyl-3-ylmethyl)-(4-methylamino-cyclohexyl)-amide hydrochloride]",EC50,sonic hedgehog pathway [1]; read-out: Mouse S12 Avg. EC50,< 50 nM
same,EC50,sonic hedgehog pathway [2]; [3],< 50 nM
"CN[C@H]1CC[C@@H](N(Cc2cc(-c3ccncc3F)ccc2OC)C(=O)c2sc3c(F)ccc(F)c3c2Cl)CC1 [Compound 386, 3-Chloro-4,7-difluoro-benzo[b]thiophene-2-carboxylic acid[5-(3-fluoro-pyridin-4-yl)-2-methoxy-benzyl]-(4-methylamino-cyclohexyl)-amide]",EC50,sonic hedgehog pathway [1]; read-out: Mouse S12 Avg. EC50,< 50 nM
same,EC50,sonic hedgehog pathway [2]; [3],< 50 nM
COc1ccc(-c2cncc(F)c2)cc1CN(C(=O)c1sc2c(F)ccc(F)c2c1Cl)[C@H]1CC[C@H](N)CC1 [Compound 416],EC50,sonic hedgehog pathway [1]; read-out: S12 Avg. EC50,< 50 nM
same,EC50,sonic hedgehog pathway [2]; [5],50 to 250 nM
"CNC1CCC(N(Cc2cc(-c3ccc(S(=O)(=O)N(C)C)cc3)ccc2OC)C(=O)c2sc3c(F)ccc(F)c3c2Cl)CC1 (centres unmarked) [Compound 391, 3-Chloro-4,7-difluoro-benzo[b]thiophene-2-carboxylic acid (4′-dimethylsulfamoyl-4-methoxy-biphenyl-3-ylmethyl)-(4-methylamino-cyclohexyl)-amide trifluoroacetate]",EC50,sonic hedgehog pathway [1]; read-out: Mouse S12 Avg. EC50,< 50 nM
same,EC50,sonic hedgehog pathway [2]; [4],< 50 nM
"CN[C@H]1CC[C@H](N(Cc2cc(-c3cncc(F)c3)ccc2OC)C(=O)c2sc3cccc(F)c3c2Cl)CC1 [Compound 383, 3-chloro-4-fluoro-N-(5-(5-fluoropyridin-3-yl)-2-methoxybenzyl)-N-((1s,4s)-4-(methylamino)cyclohexyl)benzo[b]thiophene-2-carboxamide]",EC50,sonic hedgehog pathway [1]; read-out: Mouse S12 Avg. EC50,< 50 nM
same,EC50,sonic hedgehog pathway [2]; [3],< 50 nM
